For 24 compounds, IC50 and EC50 results are on record in patent US20240245658A1, “TAAR1 AND SEROTONIN MODULATORS, AND PHARMACEUTICAL COMPOSITIONS, AND METHODS OF USE THEREOF” (Sunovion Pharmaceuticals Inc., priority 2021, published 2024).

Common to all, as to format: cell-based
One assay concerns the target T1, human 5-HT7 receptor (Homo sapiens, UniProt P34969).
T1 construct: host or cells: CHO-K1
Description: 5HT7 Antagonism Assay (Euroscreen FAST-0499C), cAMP HTRF. Conditions: CHO-K1 cells expressing human 5-HT7, reference agonist at EC80, cAMP HTRF. The method, boiled down: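 CHO-K1 cells expressing human 5-HT7, 3000 per well in Krebs-Ringer HEPES with 1 mM IBMX, were exposed for 30 minutes at room temperature to compound plus reference agonist at its EC80. cAMP was read by HTRF after 1 hour; compounds were tested in duplicate from 0.3 to 10,000 nM.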
(Time-resolved FRET reads energy transfer from a long-lived donor to a nearby acceptor.)

The target in the next assay is T2, human TAAR1 receptors (Homo sapiens, UniProt Q96RJ0).
T2 construct: host or cells: CHO-K1
T2 sequence (Q96RJ0 1-339): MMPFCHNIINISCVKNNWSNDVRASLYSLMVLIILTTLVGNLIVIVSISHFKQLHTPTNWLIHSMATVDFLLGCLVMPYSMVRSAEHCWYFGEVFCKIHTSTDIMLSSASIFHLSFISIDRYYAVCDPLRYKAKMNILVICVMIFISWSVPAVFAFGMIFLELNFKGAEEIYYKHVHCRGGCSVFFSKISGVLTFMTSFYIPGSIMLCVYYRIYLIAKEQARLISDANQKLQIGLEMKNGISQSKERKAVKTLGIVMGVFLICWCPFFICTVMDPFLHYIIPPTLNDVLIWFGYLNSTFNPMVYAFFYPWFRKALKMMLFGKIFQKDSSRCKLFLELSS
Description: TAAR1 Agonism Assay: cAMP HTRF assay for Gs coupled receptor TAAR1 (Euroscreen FAST-0987C). The conditions noted are these: CHO-K1 cells expressing human TAAR1, cAMP HTRF. The method, boiled down:
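cAMP accumulation detected by HTRF fluorescence ratio, reagents added in lysis buffer and incubated 1 h at about room temperature. Beforehand, cells (about 3,000 per well) sat with test compound at ten concentrations from 0.3 to 10,000 nM in duplicate for roughly 30 min at about room temperature; tyramine dose-response run alongside.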

The target of a further assay is T3, human 5-HT2A receptor (Homo sapiens, UniProt P28223).
T3 construct: host or cells: CHO-K1
In words: 5HT2A Antagonism Assay (Euroscreen FAST-05051), IP-One HTRF. The method, boiled down: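 CHO-K1 cells expressing receptor, 20,000/well, co-incubated with test compound and reference agonist at its EC80 for 60 min at 37 °C. IP1 accumulation read by HTRF after ~1 h detection at room temperature. Compounds tested in duplicate at 0.3–10,000 nM.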

Setting [1] is: 5-HT2A (IC50), CHO-K1 cells expressing human 5-HT2A, reference agonist at EC80, IP-One.
[2] abbreviates: read-out: 5-HT2A (IC50), CHO-K1 cells expressing human 5-HT2A, reference agonist at EC80, IP-One.
Setting [3] is: CHO-K1 cells expressing human 5-HT2A, reference agonist at EC80, IP-One, read-out: 5-HT2A (IC50).

Like-named read-outs stand apart in the source and are kept apart here.

T1 sequence (P34969 whole entry): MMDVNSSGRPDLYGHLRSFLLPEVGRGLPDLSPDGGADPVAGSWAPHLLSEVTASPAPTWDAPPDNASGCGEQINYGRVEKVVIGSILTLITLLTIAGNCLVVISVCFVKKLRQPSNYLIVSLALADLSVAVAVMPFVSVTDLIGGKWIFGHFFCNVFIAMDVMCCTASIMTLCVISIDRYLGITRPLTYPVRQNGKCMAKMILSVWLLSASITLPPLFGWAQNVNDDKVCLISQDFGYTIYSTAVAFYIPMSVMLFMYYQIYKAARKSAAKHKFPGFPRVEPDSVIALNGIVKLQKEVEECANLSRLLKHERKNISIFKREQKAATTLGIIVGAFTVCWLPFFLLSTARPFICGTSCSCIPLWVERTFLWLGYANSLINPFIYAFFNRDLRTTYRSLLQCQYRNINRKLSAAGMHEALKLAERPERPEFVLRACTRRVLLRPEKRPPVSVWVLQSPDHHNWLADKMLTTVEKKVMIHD
T3 sequence (P28223 whole entry): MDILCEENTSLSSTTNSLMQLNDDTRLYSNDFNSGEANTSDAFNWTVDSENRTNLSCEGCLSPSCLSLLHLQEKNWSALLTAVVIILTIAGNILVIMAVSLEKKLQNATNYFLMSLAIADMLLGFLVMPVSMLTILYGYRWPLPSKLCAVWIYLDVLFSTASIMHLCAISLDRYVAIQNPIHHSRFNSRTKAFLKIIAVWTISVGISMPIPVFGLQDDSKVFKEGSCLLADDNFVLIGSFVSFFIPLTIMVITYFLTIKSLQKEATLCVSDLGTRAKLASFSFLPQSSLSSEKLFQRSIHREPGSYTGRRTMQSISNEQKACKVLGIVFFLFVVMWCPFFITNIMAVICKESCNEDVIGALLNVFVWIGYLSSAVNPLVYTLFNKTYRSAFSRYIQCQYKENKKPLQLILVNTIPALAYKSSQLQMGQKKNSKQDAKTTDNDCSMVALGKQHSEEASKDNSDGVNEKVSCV

For `NCC1Cc2c(F)cccc2Oc2cccnc21` (single isomer, unassigned) [Compound 137, (R*)-(9-fluoro-10,11-dihydrobenzo[6,7]oxepino[3,2-b]pyridin-11-yl)methanamine], the IC50 was not below 10 µM on human 5-HT7 receptor and more than 10000 nM at human 5-HT2A receptor (setting [1]). In addition, the EC50 on human TAAR1 receptors is less than 1000 nM.

In the case of `CNCC1Cc2c(F)cccc2Oc2cccnc21` (single isomer, unassigned) [Compound 138, (S*)-1-(9-fluoro-10,11-dihydrobenzo[6,7]oxepino[3,2-b]pyridin-11-yl)-N-methylmethanamine], the IC50 on human 5-HT7 receptor is not below 10 µM; on human 5-HT2A receptor (setting [1]), less than 1000 nM. Also, the EC50 on human TAAR1 receptors was less than 1000 nM.

On to `Cc1cccc2c1CC(CN)c1ncccc1O2` (single isomer, unassigned) [Compound 140, (S*)-(9-methyl-10,11-dihydrobenzo[6,7]oxepino[3,2-b]pyridin-11-yl)methanamine], for which the IC50 on human 5-HT7 receptor was not below 10 µM; on human 5-HT2A receptor (setting [1]) it was more than 10000 nM. On human TAAR1 receptors, this compound displayed a half-maximal effective concentration (EC50) of less than 1000 nM.

Take `Cc1cccc2c1CC(CN)c1ncccc1O2` (single isomer, unassigned) [Compound 141, (R*)-(9-methyl-10,11-dihydrobenzo[6,7]oxepino[3,2-b]pyridin-11-yl)methanamine]: the IC50 was not below 10 µM at human 5-HT7 receptor and less than 1000 nM on human 5-HT2A receptor (setting [1]). This compound also returned a half-maximal effective concentration (EC50) at human TAAR1 receptors of less than 1000 nM.

For the compound `CNCC1Cc2c(C)cccc2Oc2cccnc21` (single isomer, unassigned) [Compound 143, (R*)-(9-methyl-10,11-dihydrobenzo[6,7]oxepino[3,2-b]pyridin-11-yl)-N-methylmethanamine], the IC50 on human 5-HT7 receptor was not below 10 µM; at human 5-HT2A receptor (setting [1]) it was less than 1000 nM. In addition, the EC50 on human TAAR1 receptors was less than 1000 nM.

In the case of `NCC1Cc2c(Cl)cccc2Oc2cccnc21` (single isomer, unassigned) [Compound 144, (S*)-(9-chloro-10,11-dihydrobenzo[6,7]oxepino[3,2-b]pyridin-11-yl)methanamine], the IC50 at human 5-HT7 receptor is not below 10 µM; at human 5-HT2A receptor (setting [1]) it was less than 1000 nM. Moreover, the EC50 at human TAAR1 receptors is less than 1000 nM.

For `NCC1Cc2c(Cl)cccc2Oc2cccnc21` (single isomer, unassigned) [Compound 145, (R*)-(9-chloro-10,11-dihydrobenzo[6,7]oxepino[3,2-b]pyridin-11-yl)methanamine], the IC50 on human 5-HT7 receptor is not below 10 µM; on human 5-HT2A receptor (setting [2]) it was less than 1000 nM. This compound also displayed an EC50 on human TAAR1 receptors of less than 1000 nM.

For the compound `CNCC1Cc2c(Cl)cccc2Oc2cccnc21` (single isomer, unassigned) [Compound 147, (R*)-(9-chloro-10,11-dihydrobenzo[6,7]oxepino[3,2-b]pyridin-11-yl)-N-methylmethanamine], the IC50 at human 5-HT7 receptor is not below 10 µM; at human 5-HT2A receptor (setting [1]) it was less than 1000 nM. At human TAAR1 receptors, this compound came in with an EC50 of less than 1000 nM.

In the case of `Cc1ccc2c(n1)C(CN)Cc1ccccc1O2` (single isomer, unassigned) [Compound 149, (R*)-(2-methyl-10,11-dihydrobenzo[6,7]oxepino[3,2-b]pyridin-11-yl)methanamine], the IC50 at human 5-HT7 receptor was not below 10 µM; on human 5-HT2A receptor (setting [1]), less than 1000 nM. On human TAAR1 receptors, this compound returned an EC50 of less than 1000 nM.

On to `CNCC1Cc2ccccc2Oc2ccc(C)nc21` (single isomer, unassigned) [Compound 150, (R*)-(2-methyl-10,11-dihydrobenzo[6,7]oxepino[3,2-b]pyridin-11-yl)-N-methylmethanamine], for which the IC50 is 1 to 10 µM on human 5-HT7 receptor and less than 1000 nM on human 5-HT2A receptor (setting [1]). In addition, the EC50 at human TAAR1 receptors is less than 1000 nM.

Consider `CCc1ccc2c(n1)C(CN)Cc1ccccc1O2` (single isomer, unassigned) [Compound 151, (R*)-(2-ethyl-10,11-dihydrobenzo[6,7]oxepino[3,2-b]pyridin-11-yl)methanamine], for which the IC50 was not below 10 µM at human 5-HT7 receptor and less than 1000 nM on human 5-HT2A receptor (setting [1]). This compound also yielded a concentration giving a half-maximal response (EC50) at human TAAR1 receptors of less than 1000 nM.

In the case of `CCc1ccc2c(n1)C(CNC)Cc1ccccc1O2` (single isomer, unassigned) [Compound 152, (R*)-(2-ethyl-10,11-dihydrobenzo[6,7]oxepino[3,2-b]pyridin-11-yl)-N-methylmethanamine], the IC50 at human 5-HT7 receptor is 1 to 10 µM; at human 5-HT2A receptor (setting [1]) it was less than 1000 nM. For the same compound, the concentration giving a half-maximal response (EC50) on human TAAR1 receptors was less than 1000 nM.

In the case of `NCC1Cc2c(F)cncc2Oc2ccccc21` (single isomer, unassigned) [Compound 153, (R*)-(4-fluoro-5,6-dihydrobenzo[6,7]oxepino[2,3-c]pyridin-6-yl)methanamine], the results for the IC50 on human 5-HT7 receptor and on human 5-HT2A receptor (setting [1]) were not below 10 µM and less than 1000 nM, respectively. The compound also displayed an EC50 on human TAAR1 receptors of less than 1000 nM.

Turning to `NCC1Cc2c(F)cncc2Oc2ccccc21` (single isomer, unassigned) [Compound 154, (S*)-(4-fluoro-5,6-dihydrobenzo[6,7]oxepino[2,3-c]pyridin-6-yl)methanamine], the IC50 is not below 10 µM at human 5-HT7 receptor and 1000 to 10000 nM at human 5-HT2A receptor (setting [1]). For the same compound, the EC50 on human TAAR1 receptors is more than 10000 nM.

As to `NCC1Cc2ncccc2Oc2cccc(F)c21` (single isomer, unassigned) [Compound 156, (S*)-(9-fluoro-10,11-dihydrobenzo[6,7]oxepino[3,2-b]pyridin-10-yl)methanamine], the IC50 at human 5-HT7 receptor was not below 10 µM; at human 5-HT2A receptor (setting [1]) it was more than 10000 nM. For the same compound, on human TAAR1 receptors, the EC50 is less than 1000 nM.

`CNCC1Cc2ncccc2Oc2cccc(F)c21` (single isomer, unassigned) [Compound 158, (S*)-(9-fluoro-10,11-dihydrobenzo[6,7]oxepino[3,2-b]pyridin-10-yl)-N-methylmethanamine]: the IC50 was not below 10 µM on human 5-HT7 receptor and more than 10000 nM at human 5-HT2A receptor (setting [3]). Further, at human TAAR1 receptors, the EC50 was 1000 to 10000 nM.

Turning to `N#Cc1ccc2c(c1)C(CN)Cc1ncccc1O2` (single isomer, unassigned) [Compound 159, (R*)-10-(aminomethyl)-10,11-dihydrobenzo[6,7]-oxepino[3,2-b]pyridine-8-carbonitrile], the half-inhibitory concentration (IC50) at human 5-HT7 receptor was not below 10 µM; at human 5-HT2A receptor (setting [1]) it was more than 10000 nM. At human TAAR1 receptors, this compound yielded an EC50 of 1000 to 10000 nM.

For `N#Cc1ccc2c(c1)C(CN)Cc1ncccc1O2` (single isomer, unassigned) [Compound 160, (S*)-10-(aminomethyl)-10,11-dihydrobenzo[6,7]oxepino[3,2-b]pyridine-8-carbonitrile], the figures for the IC50 at human 5-HT7 receptor and on human 5-HT2A receptor (setting [1]) were 1 to 10 µM and less than 1000 nM, respectively. This compound also displayed a 50% effective concentration (EC50) at human TAAR1 receptors of less than 1000 nM.

As to `CNCC1Cc2ncccc2Oc2ccc(C#N)cc21` (single isomer, unassigned) [Compound 161, (R*)-10-((methylamino)methyl)-10,11-dihydrobenzo[6,7]oxepino[3,2-b]pyridine-8-carbonitrile], the IC50 at human 5-HT7 receptor was not below 10 µM; on human 5-HT2A receptor (setting [3]) it was 1000 to 10000 nM. This compound registered a concentration giving a half-maximal response (EC50) at human TAAR1 receptors of more than 10000 nM.

Regarding `CNCC1Cc2ncccc2Oc2ccc(C#N)cc21` (single isomer, unassigned) [Compound 162, (S*)-10-((methylamino)methyl)-10,11-dihydrobenzo[6,7]oxepino[3,2-b]pyridine-8-carbonitrile], the IC50 is not below 10 µM on human 5-HT7 receptor and 1000 to 10000 nM at human 5-HT2A receptor (setting [3]). Also, the EC50 on human TAAR1 receptors was more than 10000 nM.

For `NCC1Cc2ncccc2Oc2ccc(F)cc21` (single isomer, unassigned) [Compound 163, (R*)-(8-fluoro-10,11-dihydrobenzo[6,7]oxepino[3,2-b]pyridin-10-yl)methanamine], the 50% inhibitory concentration (IC50) at human 5-HT7 receptor was not below 10 µM; on human 5-HT2A receptor (setting [1]), 1000 to 10000 nM. This compound returned a half-maximal effective concentration (EC50) at human TAAR1 receptors of 1000 to 10000 nM.

With `NCC1Cc2ncccc2Oc2ccc(F)cc21` (single isomer, unassigned) [Compound 164, (S*)-(8-fluoro-10,11-dihydrobenzo[6,7]oxepino[3,2-b]pyridin-10-yl)methanamine], the IC50 at human 5-HT7 receptor is not below 10 µM; on human 5-HT2A receptor (setting [2]), 1000 to 10000 nM. Further, on human TAAR1 receptors, the half-maximal effective concentration (EC50) is less than 1000 nM.

For the compound `CNCC1Cc2ncccc2Oc2ccc(F)cc21` (single isomer, unassigned) [Compound 165, (R*)-(8-fluoro-10,11-dihydrobenzo[6,7]oxepino[3,2-b]pyridin-10-yl)-N-methylmethanamine], the IC50 at human 5-HT7 receptor was not below 10 µM; on human 5-HT2A receptor (setting [1]), less than 1000 nM. On human TAAR1 receptors, this compound returned an EC50 of more than 10000 nM.

`CNCC1Cc2ncccc2Oc2ccc(F)cc21` (single isomer, unassigned) [Compound 166, (S*)-(8-fluoro-10,11-dihydrobenzo[6,7]oxepino[3,2-b]pyridin-10-yl)-N-methylmethanamine]: the results for the IC50 at human 5-HT7 receptor and on human 5-HT2A receptor (setting [2]) were 1 to 10 µM and less than 1000 nM, respectively. The compound further returned an EC50 on human TAAR1 receptors of less than 1000 nM.

One may read the IC50 as the midpoint of a concentration-inhibition curve. Usually EC50 stands for the concentration at which the effect is half-maximal. Low readings indicate an effect from little substance, high ones a need for much substance.
